Assays:
[1] = test system: heat induced edema in rat paws; test: Heat injury to the skin: paw edema after immersion in 58° C. water; assay type: in vivo; conditions: for ED50 (nmol/kg), inhibition of heat-induced edema / ED50 (μg/kg), inhibition of heat-induced edema: % increase in paw water content 30 minutes after heat injury, as % of saline control
Description: Peptides, obtained from Peninsula Laboratories or Bachem Laboratories, were dissolved in sterile saline and injected intravenously 10 minutes before exposure to heat.
After removal of the saline-treated animal's paw from 58° C. water, the paw's skin became red, followed by progressive swelling from an initial volume of about 1.5 ml to a net increase of 0.77 ml within 5 minutes.
To compare the potency of the peptides, the following method was used. Thirty minutes after heat injury, rats were killed with an over-dose of concentrated sodium pentobarbital, and both paws cut off at the ankle joint and weighed. All paws were then dried in an oven at 80° C. for 24 hours and re-weighed to obtain % increase in water content as: [formula]
The rat was euthanized 30 minutes later with concentrated pentobarbital and both paws removed by cutting at the ankle joint and weighed. The paws were then dried at 80° C. for 24 hours. Controls received only saline at 0.1 ml/kg i.v. The increase in the water content of the heated paw was calculated as: heated paw (wet wt.--dry wt.)--unheated paw (wet wt.--dry wt.).

substance P = test: Salivary secretion induced by substance P injections; assay type: in vivo; conditions: substance P 40 μg/kg s.c., rat
Source text: Thus, a chemical (Such as illustrated by CP-96,345) that antagonizes the inflammatory mediator, substance P, is not sufficient to prevent edema after thermal injury.

[2] = test system: vascular leakage from abdominal muscle after celiotomy; test: Skeletal muscle injury (celiotomy): Monastral blue vascular leakage; assay type: in vivo, rat; conditions: for Lesion Size (x104): area x intensity; for Area (mm^2) of dye staining: samples 30 minutes after celiotomy
Description: (§1) Experiments were conducted on 260±6 (S.D.) male Sprague-Dawley rats from Simonsen Laboratories (Gilroy, Calif.). Animals were injected with sodium pentobarbital, 60 mg/kg i.p. Ten to 15 minutes later, after anesthesia was signaled by loss of the righting reflex and motor responses to tail pinch, Monastral blue B (used to estimate leakage of macromolecules from blood vessels), suspended in saline at 30 mg/ml (Sigma Co., St. Louis, Mo.), was injected 60 mg/kg i.v. at a rate of approximately 0.2 ml/100 g body weight/min into a branch of the femoral vein. Procedures for inducing vascular leakage began three minutes after Monastral blue infusion.
The abdomen was shaved and a 4 cm scalpel cut was made in the midline. After manually parting the skin, an incision of equal length was made in the rectus abdominus and the skin was then pushed together to cover the wound. Thirty minutes after celiotomy, the rat was euthanized with an i.v. overdose of pentobarbital and the skin and muscle surrounding the site of incision were removed and fixed in 10% neutral-buffered formalin (NBF) for at least 2 days before further analysis.
To measure the area of dye distribution and the intensity of dye staining on the surfaces of the tissues, we used an image-processing system (JAVA, Jandel Video Analysis System, Corte Madera, Calif.) in which a video image, composed of pixels with different gray intensities, was subjected to numeric analysis. Samples of the abdominal muscle and brain were placed on a non-reflective coated glass board illuminated by six 60 watt fluorescent bulbs placed 1.65 m above the tissues and the images recorded under these constant conditions, without magnification, on video film. The areas of dye distribution were demarcated with a mouse-pointer device and the average intensity in the defined areas was obtained. To calibrate light intensity on the JAVA system, various concentrations of Monastral blue B (0.0625 to 16 mg/ml) were placed on white filter paper and the intensity scale set from 0 to 255 units. The relationship of light intensity, which is the degree of blueness in arbitrary units, to Monastral blue B concentrations (mg/ml) was: light intensity =124+116 log MB, an equation obtained by linear regression with a correlation coefficient of r= 0.98. The term "lesion size", applied to the area of staining multiplied by its light intensity, represents a two-dimensional measurement of vascular leakage. This assessment was considered adequate because the injuries were to the surfaces of the muscle and cortex and the lesions were not more than a few mm deep. To further characterize the sites of dye leakage from blood vessels, samples of muscle and cortex, cut to approximately 500 μm thickness, were mounted in glycerol gelatin for microscopic examination.
Animals were randomly assigned to treatments using a paired control design with a minimum of 6 rats per group. Data were expressed as the mean ± S.E.M. and the ED50 and 95% confidence limits were estimated by the method of Litchfield and Wilcoxon (1949). The Student's test was used for comparison of groups.

[3] = test system: vascular leakage from brain cortex after freeze injury; test: Cerebral cortex freeze injury: Monastral blue vascular leakage; assay type: in vivo, rat; conditions: 4 nmol/kg i.v. 10 minutes before freeze injury
Description: as §1
This model of vasogenic edema in brain tissues was first described by Chan et al. (1983). Anesthetized rats were mounted on a David Kopf stereotaxic instrument and a 2 to 2.5 cm midline incision made in the shaved scalp. After parting the skin and connective tissue to expose the skull, a 60 mm^2 plate, connected to a brass cup filled with dry ice and acetone and maintained at -50° C., was applied to the skull for four minutes. One hour later, the animal was perfused through the aorta with saline, followed by 10% NBF, and then the brain was removed and stored in 10% NBF for at least two days before further analysis. Sections of membranes covering the cortex were also dissected from the underlying tissues and separately examined.
To measure the area of dye distribution and the intensity of dye staining on the surfaces of the tissues, we used an image-processing system (JAVA, Jandel Video Analysis System, Corte Madera, Calif.) in which a video image, composed of pixels with different gray intensities, was subjected to numeric analysis. Samples of the abdominal muscle and brain were placed on a non-reflective coated glass board illuminated by six 60 watt fluorescent bulbs placed 1.65 m above the tissues and the images recorded under these constant conditions, without magnification, on video film. The areas of dye distribution were demarcated with a mouse-pointer device and the average intensity in the defined areas was obtained. […]

[4] = test system: epinephrine-induced pulmonary edema; test: Epinephrine-induced pulmonary edema; assay type: in vivo, rat; conditions: 10 nmol/kg i.v. 10 minutes before epinephrine bitartrate 10 μg/kg i.v.; lungs 30 minutes after Epi; Saline + Epi 6.2 ± 0.3
Description: Male Sprague-Dawley rats weighing 260±9 g (Simonsen Labs, Gilroy, Calif.) were used in all experiments. […] This single dose of Epi is sufficient to produce a non-lethal pulmonary edema in the pentobarbital-anesthetized rat. Thirty minutes after Epi, animals were euthanized with concentrated pentobarbital and the lungs were removed. […] Lungs were blotted on paper towels and weighed (wet wt.), then placed in a 80° C. oven for 24 hour and re-weighed again (dry wt.). The value 1000 (wet wt.-dry wt.)/body wt. was termed the edema index. All data are presented as mean ± SEM. Statistical significance was assessed by analysis of variance (ANOVA) with the Studentized range-test.

blood pressure = test: Blood pressure (mean arterial pressure) after i.v. injection; assay type: in vivo; conditions: 10 nmol/kg i.v.; FIG. 4
Description: Blood pressure was monitored of animals to which 10 nmol/kg of different compounds were administered i.v. One administration was of saline as control. […] Blood pressure was monitored at intervals over a thirty minute period after injection.

Molecule: COc1ccccc1CN[C@H]1C2CCN(CC2)[C@H]1C(c1ccccc1)c1ccccc1 [CP-96,345, reference compound]
- Increase in Water Content of Heated Paw ([1]; 4 mg/kg i.v. 10 minutes before 58° C. water for one minute, 30 minutes later, saline 1117 ± 33, not significantly different): 1057 ± 24 mg
- salivary secretion induced by substance P (substance P): prevent salivary secretion

Molecule: Kinetensin
- ED20, inhibition of heat-induced edema ([1]; i.v. 10 minutes before heat, dose range 200-800 nmol/kg): 420 nmol/kg

Molecule: LANT-6
- swelling after heat injury ([1]; 0.5 mg/kg i.v., control 69±2%, N=6 pairs, P<0.001): 2±1%

Molecule: N-acetyl-neurotensin (8-13) [AcNT8-13]
- ED50 (nmol/kg), inhibition of heat-induced edema ([1]; i.v. 10 minutes before heat): 2.1 nmol/kg
- ED50 (μg/kg), inhibition of heat-induced edema ([1]; i.v. 10 minutes before heat): 1.8 µg/kg
- Lesion Size (x104) ([2]; 4 nmol/kg i.v. 5 minutes after celiotomy, saline 10.4 ± 0.5): 5.3 ± 0.4 x104
- Intensity of dye staining ([2]; 4 nmol/kg i.v. 5 minutes after celiotomy, saline 137 ± 31): 108 ± 5
- Area (mm^2) of dye staining ([2]; 4 nmol/kg i.v. 5 minutes after celiotomy, saline 758 ± 39): 493 ± 27 mm^2
- Lesion Size (x104) ([2]; 4 nmol/kg i.v. 10 minutes before celiotomy, saline 12.7 ± 0.4): 5.0 ± 0.2 x104
- Intensity of dye staining ([2]; 4 nmol/kg i.v. 10 minutes before celiotomy, saline 149 ± 2): 126 ± 2
- Area (mm^2) of dye staining ([2]; 4 nmol/kg i.v. 10 minutes before celiotomy, saline 852 ± 27): 399 ± 18 mm^2
- Lesion Size (x103) ([3]; area x intensity, saline 5.7 ± 0.2): 2.4 ± 0.3 x103
- Area (mm^2) of dye staining ([3]; brain removed sixty minutes later, saline 38 ± 2): 21 ± 2 mm^2
- Intensity of dye staining ([3]; saline 151 ± 4): 119 ± 4
- Edema Index, 1000 (wet wt.-dry wt.)/body wt. [4]: 4.9 ± 0.2
- hypotensive effect (blood pressure over 30 minutes) (blood pressure): lacked hypotensive effect

Molecule: neuromedin N (IPYIL; Neuromedin N; UniProt P30990 144-148, looked up) [peptide of the neurotensin family]
- ED50 (nmol/kg), inhibition of heat-induced edema ([1]; i.v. 10 minutes before heat): 10.0 nmol/kg
- ED50 (μg/kg), inhibition of heat-induced edema ([1]; i.v. 10 minutes before heat): 7.5 µg/kg

Molecule: neurotensin (8-13) [NT (8-13)]
- swelling response (paw volume change) ([1]; FIG. 1, different doses before 58° C. water, paw volume up to 30 minutes): dose-dependent suppression
- ED50 (nmol/kg), inhibition of heat-induced edema ([1]; i.v. 10 minutes before heat): 1.9 nmol/kg
- ED50 (μg/kg), inhibition of heat-induced edema ([1]; i.v. 10 minutes before heat): 1.6 µg/kg
- Edema Index, 1000 (wet wt.-dry wt.)/body wt. [4]: 4.7 ± 0.2
- hypotensive effect (blood pressure over 30 minutes) (blood pressure): lacked hypotensive effect

Molecule: xenopsin
- ED50 (nmol/kg), inhibition of heat-induced edema ([1]; i.v. 10 minutes before heat): 0.9 nmol/kg
- ED50 (μg/kg), inhibition of heat-induced edema ([1]; i.v. 10 minutes before heat): 0.88 µg/kg

Source: patent US5374621A (Regents of the University of California, priority 1991, dated 1994)
